From patent publication US20240409585A1, “MACROCYCLIC IMMUNOMODULATORS” (priority 2021, published 2024) come the findings set out here.

Bridge positions count the residues as written; N and C are the ends. Square brackets hold non-standard residues; d marks the D form. Peptide text beside a SMILES is read from it. * marks the point of attachment. ξ: configuration not given here. Phe(4-COOH) = N[C@@H](Cc1ccc(C(=O)O)cc1)C(=O)O; Bip = N[C@@H](Cc1ccc(-c2ccccc2)cc1)C(=O)O; Phe(2-Cl) = N[C@@H](Cc1ccccc1Cl)C(=O)O; Phe(3-Me) = Cc1cccc(C[C@H](N)C(=O)O)c1; Bta = N[C@@H](Cc1csc2ccccc12)C(=O)O; Val(3-OH) = CC(C)(O)[C@H](N)C(=O)O; aIle = CC[C@@H](C)[C@H](N)C(=O)O; 3Pal = N[C@@H](Cc1cccnc1)C(=O)O; 4Pal = N[C@@H](Cc1ccncc1)C(=O)O; Cha = N[C@@H](CC1CCCCC1)C(=O)O; Cit = NC(=O)NCCC[C@H](N)C(=O)O; Ala(CN) = N#CC[C@H](N)C(=O)O; Carboxymethyl = O=C(O)C*; NMeA = CN[C@@H](C)C(=O)O; Orn = NCCC[C@H](N)C(=O)O; Dab = NCC[C@H](N)C(=O)O; Dap = NC[C@H](N)C(=O)O; ξV = CC(C)C(N)C(=O)O

The assay deals with T1, PE-labeled human PD-L1-Ig binding to Jurkat cell line over-expressing human PD-1 (Jurkat-PD-1) (Homo sapiens, UniProt Q15116).
T1 construct: expressed in transfected cells; host or cells: Jurkat
T1 sequence (Q15116 25-288): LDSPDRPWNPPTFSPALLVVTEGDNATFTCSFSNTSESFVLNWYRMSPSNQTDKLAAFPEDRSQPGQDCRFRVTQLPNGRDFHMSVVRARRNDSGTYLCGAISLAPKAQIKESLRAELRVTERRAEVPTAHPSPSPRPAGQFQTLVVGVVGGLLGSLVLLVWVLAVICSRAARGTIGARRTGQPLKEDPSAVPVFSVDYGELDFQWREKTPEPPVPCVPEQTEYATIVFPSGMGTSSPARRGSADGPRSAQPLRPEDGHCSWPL
As to the kind of experiment: Jurkat-PD-1 Cell Binding High-Content Screening Assay (CBA): Method 1. The conditions noted are these: Jurkat-hPD-1 cells, PE-labeled PD-L1-Ig 20 nM final; read-out: Jurkat HPDL1 PD1 IC50 (uM) (Method 1).
Take `CC(C)C[C@@H]1NC(=O)[C@H](CCCNC(=N)N)NC(=O)[C@@H](CC(C)C)NC(=O)[C@H](C)N(C)C(=O)[C@H](CCCNC(=N)N)NC(=O)[C@H](Cc2ccc(-c3ccccc3)cc2)NC(=O)[C@H](C(C)C)NC(=O)[C@H](Cc2ccccc2Cl)NC(=O)[C@H](CC(=O)O)NC(=O)[C@H](Cc2ccc(O)cc2)NC(=O)[C@H](CC(N)=O)NC(=O)CSC[C@@H](C(=O)N[C@@H](C)C(N)=O)NC(=O)[C@H]([C@@H](C)O)NC(=O)[C@H](C(C)C)NC1=O` [Compound 1193] ({CH2CO}-NYD[Phe(2-Cl)]V[Bip]R[NMeA][dL]RLVTCA-NH2; thioether N-14): the IC50 (in general, the concentration that inhibits the measured activity by half) came to 0.35 µM.

On to `CC[C@@H](C)[C@@H]1NC(=O)[C@H](Cc2ccc(-c3ccccc3)cc2)NC(=O)[C@H](CC(C)C)NC(=O)[C@H](Cc2c[nH]c3ccccc23)NC(=O)[C@H](CC(=O)O)NC(=O)[C@H](Cc2ccc(C(=O)O)cc2)NC(=O)[C@H](Cc2ccc(OCC(=O)O)cc2)NC(=O)CSC[C@@H](C(=O)N[C@@H](CCCCN)C(N)=O)NC(=O)[C@H](CC#N)NC(=O)C(C(C)C)NC(=O)[C@H](CC(C)C)NC(=O)[C@H](CC(N)=O)NC(=O)[C@@H](CC(C)C)NC(=O)[C@H](C)N(C)C1=O` (stereo partly drawn) [Compound 2106] ({CH2CO}-Y(Carboxymethyl)[Phe(4-COOH)]DWL[Bip][aIle][NMeA][dL]NL[ξV][Ala(CN)]CK-NH2; thioether N-14), for which the IC50 amounted to 0.06 µM.

Take `CC(C)C[C@@H]1NC(=O)[C@H](Cc2c[nH]c3ccccc23)NC(=O)[C@H](CC(=O)O)NC(=O)[C@H](Cc2ccc(C(=O)O)cc2)NC(=O)[C@H](Cc2ccc(OCC(=O)O)cc2)NC(=O)CSC[C@@H](C(=O)N[C@@H](CC(N)=O)C(N)=O)NC(=O)[C@H](CO)NC(=O)[C@H](C(C)(C)O)NC(=O)[C@H](CC2CCCCC2)NC(=O)[C@H](CCN)NC(=O)[C@@H](CC(C)C)NC(=O)[C@H](C)N(C)C(=O)[C@H](C(C)C)NC(=O)[C@H](Cc2ccc(-c3ccccc3)cc2)NC1=O` [Compound 1915] ({CH2CO}-Y(Carboxymethyl)[Phe(4-COOH)]DWL[Bip]V[NMeA][dL][Dab][Cha][Val(3-OH)]SCN-NH2; thioether N-14): the IC50 was determined as 0.01 µM.

As to `CC(C)C[C@@H]1NC(=O)CSC[C@@H](C(=O)NCC(N)=O)NC(=O)[C@H](CO)NC(=O)[C@H](C(C)C)NC(=O)[C@H](CC(C)C)NC(=O)[C@H](CCCNC(=N)N)NC(=O)[C@@H](Cc2ccccc2)NC(=O)[C@H](C)N(C)C(=O)[C@H](CCCNC(=N)N)NC(=O)[C@H](Cc2ccc(-c3ccccc3)cc2)NC(=O)[C@H](C(C)C)NC(=O)[C@H](Cc2c[nH]c3ccccc23)NC(=O)[C@H](CC(=O)O)NC(=O)[C@H](Cc2ccc(O)cc2)NC1=O` [Compound 1024] ({CH2CO}-LYDWV[Bip]R[NMeA][dF]RLVSCG-NH2; thioether N-14), the IC50 is 0.15 µM.

On to `CC(C)C[C@@H]1NC(=O)[C@H](Cc2c[nH]c3ccccc23)NC(=O)[C@H](CC(=O)O)NC(=O)[C@H](Cc2ccncc2)NC(=O)[C@H](Cc2ccc(OCC(=O)O)cc2)NC(=O)CSC[C@@H](C(=O)N[C@@H](CCN)C(N)=O)NC(=O)[C@H](CO)NC(=O)[C@H](C(C)C)NC(=O)[C@H](CC2CCCCC2)NC(=O)[C@H](CCN)NC(=O)[C@@H](CC(C)C)NC(=O)[C@H](C)N(C)C(=O)[C@H](C(C)C)NC(=O)[C@H](Cc2ccc(-c3ccccc3)cc2)NC1=O` [Compound 1905] ({CH2CO}-Y(Carboxymethyl)[4Pal]DWL[Bip]V[NMeA][dL][Dab][Cha]VSC[Dab]-NH2; thioether N-14), for which the IC50 was found to be 0.01 µM.

As for `CCNC(=O)[C@H](CCN)NC(=O)[C@@H]1CSCC(=O)N[C@@H](Cc2cccnc2)C(=O)N[C@@H](Cc2ccc(OCC(=O)O)cc2)C(=O)N[C@@H](CC(=O)O)C(=O)N[C@@H](Cc2cccc(C)c2)C(=O)N[C@@H](Cc2ccc(OCC(=O)O)cc2)C(=O)N[C@@H](Cc2ccc(-c3ccccc3)cc2)C(=O)N[C@@H](Cc2ccc(OCC(=O)O)cc2)C(=O)N(C)[C@@H](C)C(=O)N[C@H](CC(C)C)C(=O)N[C@@H](CCN)C(=O)N[C@@H](CC2CCCCC2)C(=O)N[C@@H](C(C)C)C(=O)N[C@@H]([C@@H](C)O)C(=O)N1` [Compound 1856] ({CH2CO}-[3Pal]Y(Carboxymethyl)D[Phe(3-Me)]Y(Carboxymethyl)[Bip]Y(Carboxymethyl)[NMeA][dL][Dab][Cha]VTC[Dab]-NHEt; thioether N-14), the IC50 was found to be 0.02 µM.

With `CC[C@H](C)[C@@H]1NC(=O)[C@H](Cc2ccc(-c3ccccc3)cc2)NC(=O)[C@H](C(C)(C)O)NC(=O)[C@H](Cc2cccc(C)c2)NC(=O)[C@H](CC(=O)O)NC(=O)[C@H](Cc2ccc(O)cc2)NC(=O)[C@H](CC(N)=O)NC(=O)CSC[C@@H](C(=O)N[C@H](C)C(N)=O)NC(=O)[C@H]([C@@H](C)O)NC(=O)[C@H](C(C)(C)O)NC(=O)[C@H](CC2CCCCC2)NC(=O)[C@H](CCN)NC(=O)[C@@H](CC(C)C)NC(=O)[C@H](C)N(C)C1=O` [Compound 1694] ({CH2CO}-NYD[Phe(3-Me)][Val(3-OH)][Bip]I[NMeA][dL][Dab][Cha][Val(3-OH)]TC[dA]-NH2; thioether N-14), the IC50 turned out to be 0.1 µM.

`CC(C)C[C@@H]1NC(=O)[C@H](CCCNC(=N)N)NC(=O)[C@H](Cc2csc3ccccc23)NC(=O)[C@H](C)N(C)C(=O)[C@H](CCCNC(=N)N)NC(=O)[C@H](Cc2ccc(-c3ccccc3)cc2)NC(=O)[C@H](C(C)C)NC(=O)[C@H](Cc2c[nH]c3ccccc23)NC(=O)[C@H](CC(=O)O)NC(=O)[C@H](Cc2ccc(O)cc2)NC(=O)[C@H](CC(N)=O)NC(=O)CSC[C@@H](C(=O)NCC(N)=O)NC(=O)[C@H](CO)NC(=O)[C@H](C(C)C)NC1=O` [Compound 1026] ({CH2CO}-NYDWV[Bip]R[NMeA][Bta]RLVSCG-NH2; thioether N-14): the IC50 was found to be 0.13 µM.

For the molecule `CC(C)C[C@@H]1NC(=O)[C@H](CCN)NC(=O)[C@@H](CC(C)C)NC(=O)[C@H](C)N(C)C(=O)[C@H](CCCNC(=N)N)NC(=O)[C@H](Cc2ccc(-c3ccccc3)cc2)NC(=O)[C@H](C(C)C)NC(=O)[C@H](Cc2c[nH]c3ccccc23)NC(=O)[C@H](CC(=O)O)NC(=O)[C@H](Cc2ccc(O)cc2)NC(=O)[C@H](CC(N)=O)NC(=O)CSC[C@@H](C(=O)N[C@@H](CCC(=O)O)C(N)=O)NC(=O)[C@H]([C@@H](C)O)NC(=O)[C@H](C(C)C)NC1=O` [Compound 1172] ({CH2CO}-NYDWV[Bip]R[NMeA][dL][Dab]LVTCE-NH2; thioether N-14), the IC50 worked out at 0.29 µM.

For `CC(C)C[C@@H]1NC(=O)[C@H](CCN)NC(=O)[C@@H](CC(C)C)NC(=O)[C@H](C)N(C)C(=O)[C@H](CCCNC(N)=O)NC(=O)[C@H](Cc2ccc(-c3ccccc3)cc2)NC(=O)[C@H](C(C)C)NC(=O)[C@H](Cc2c[nH]c3ccccc23)NC(=O)[C@H](CC(=O)O)NC(=O)[C@H](Cc2ccc(O)cc2)NC(=O)[C@H](Cc2ccc(OCC(=O)O)cc2)NC(=O)CSC[C@@H](C(=O)N[C@@H](C)C(N)=O)NC(=O)[C@H]([C@@H](C)O)NC(=O)[C@H](C(C)C)NC1=O` [Compound 1324] ({CH2CO}-Y(Carboxymethyl)YDWV[Bip][Cit][NMeA][dL][Dab]LVTCA-NH2; thioether N-14), the IC50 came to 0.03 µM.

For `Cc1cccc(C[C@@H]2NC(=O)[C@H](CC(=O)O)NC(=O)[C@H](Cc3ccc(OCC(=O)O)cc3)NC(=O)[C@H](CN)NC(=O)CSC[C@@H](C(=O)N[C@@H](CCN)C(N)=O)NC(=O)[C@H](CCCN)NC(=O)[C@H](C(C)C)NC(=O)[C@H](CC3CCCCC3)NC(=O)[C@H](CCN)NC(=O)[C@@H](C)NC(=O)[C@H](C)N(C)C(=O)[C@H](Cc3ccc(O)cc3)NC(=O)[C@H](Cc3ccc(-c4ccccc4)cc3)NC(=O)[C@H](Cc3ccc(O)cc3)NC2=O)c1` [Compound 1875] ({CH2CO}-[Dap]Y(Carboxymethyl)D[Phe(3-Me)]Y[Bip]Y[NMeA][dA][Dab][Cha]V[Orn]C[Dab]-NH2; thioether N-14), the IC50 turned out to be 0.05 µM.

`CC(C)C[C@@H]1NC(=O)[C@H](CCN)NC(=O)[C@@H](CC(C)C)NC(=O)[C@H](C)N(C)C(=O)[C@H](CCCNC(=N)N)NC(=O)[C@H](Cc2ccc(-c3ccccc3)cc2)NC(=O)[C@H](C(C)C)NC(=O)[C@H](Cc2c[nH]c3ccccc23)NC(=O)[C@H](CC(=O)O)NC(=O)[C@H](Cc2ccc(O)cc2)NC(=O)[C@H](CC(N)=O)NC(=O)CSC[C@@H](C(=O)N[C@@H](C)C(N)=O)NC(=O)[C@H](CCCN)NC(=O)[C@H](C(C)C)NC1=O` [Compound 1242] ({CH2CO}-NYDWV[Bip]R[NMeA][dL][Dab]LV[Orn]CA-NH2; thioether N-14): the IC50 came out at 0.09 µM.

Turning to `CC(C)C[C@@H]1NC(=O)[C@H](CCCCN)NC(=O)[C@@H](CC(C)C)NC(=O)[C@H](C)N(C)C(=O)[C@H](CCCNC(N)=O)NC(=O)[C@H](Cc2ccc(-c3ccccc3)cc2)NC(=O)[C@H](C(C)C)NC(=O)[C@H](Cc2c[nH]c3ccccc23)NC(=O)[C@H](CC(=O)O)NC(=O)[C@H](Cc2ccc(O)cc2)NC(=O)[C@H](CC(N)=O)NC(=O)CSC[C@@H](C(=O)N[C@@H](C)C(N)=O)NC(=O)[C@H](CO)NC(=O)[C@H](C(C)C)NC1=O` [Compound 1473] ({CH2CO}-NYDWV[Bip][Cit][NMeA][dL]KLVSCA-NH2; thioether N-14), the IC50 was 0.04 µM.

On to `CC(C)C[C@@H]1NC(=O)[C@H](Cc2c[nH]c3ccccc23)NC(=O)[C@H](CC(=O)O)NC(=O)[C@H](Cc2ccc(O)cc2)NC(=O)[C@H](Cc2cnc[nH]2)NC(=O)CSC[C@@H](C(=O)NCC(N)=O)NC(=O)[C@H](CO)NC(=O)[C@H](C(C)C)NC(=O)[C@H](CC(C)C)NC(=O)[C@H](CC(N)=O)NC(=O)[C@H](CC(N)=O)NC(=O)[C@H](C)N(C)C(=O)[C@H](C(C)C)NC(=O)[C@H](Cc2ccc(-c3ccccc3)cc2)NC1=O` [Compound 1808] ({CH2CO}-HYDWL[Bip]V[NMeA]NNLVSCG-NH2; thioether N-14), for which the IC50 was 0.86 µM.

Regarding `CC(C)C[C@@H]1NC(=O)[C@H](CCCN)NC(=O)[C@@H](CC(C)C)NC(=O)[C@H](C)N(C)C(=O)[C@H](CCCN)NC(=O)[C@H](Cc2ccc(-c3ccccc3)cc2)NC(=O)[C@H](C(C)C)NC(=O)[C@H](Cc2c[nH]c3ccccc23)NC(=O)[C@H](CC(=O)O)NC(=O)[C@H](Cc2ccc(O)cc2)NC(=O)[C@H](CC(N)=O)NC(=O)CSC[C@@H](C(=O)N[C@@H](C)C(N)=O)NC(=O)[C@H](CO)NC(=O)[C@H](C(C)C)NC1=O` [Compound 1251] ({CH2CO}-NYDWV[Bip][Orn][NMeA][dL][Orn]LVSCA-NH2; thioether N-14), the concentration for half-maximal inhibition (IC50) is 0.04 µM.
